{
  "source": "patent US9079880B2",
  "about": "“Rho kinase inhibitors” (Boehringer Ingelheim International GmbH, priority 2010, dated 2015)",
  "data": [
    {"molecular_target": "T1, ROCKII (1-543) (Homo sapiens (Human), UniProt O75116)", "assay": "IMAP Assay (fluorescence polarization, FAM S6 peptide)", "format": "biochemical", "conditions": "100 μM ATP, 200 nM FAM S6 peptide, 1 nM kinase; read-out: Assay 2 IC50", "description": "This assay is performed using FAM S6 substrate peptide (Catalogue #R7184) and IMAP FP Screening Express Kit detection reagents from Molecular Devices (Sunnyvale, Calif.) in IMAP kinase reaction buffer (Tris-HCl, pH 7.2, 10 mM MgCl2, 0.05% NaN3, 0.1% phosphate-free BSA) containing 1 mM DTT. Test compounds dissolved in neat DMSO at 0.3 mg/mL are serially diluted 1 to 3 for concentration response in 100% DMSO. The DMSO serial dilutions are further diluted 33.33-fold in kinase reaction buffer, and 10 μL of this buffer dilution is transferred to Corning black 96-well half area NBS plates for a final top concentration of 3 μg/mL in 1% DMSO. 10 μL aliquot of 3 nM ROCKII (1-543) diluted in kinase reaction buffer is added to each assay well for a final concentration of 1 nM kinase. 10 μL of a mixture of 600 nM FAM S6 peptide and 300 μM ATP diluted in kinase reaction buffer is added to each well for a final concentration of 200 nM peptide and 100 μM ATP. The kinase reaction mixture is incubated for 60 minutes at room temperature. Positive controls are reaction mixtures containing no test compound and negative controls (blanks) are reaction mixtures containing no kinase. The kinase reaction is stopped by addition of 60 μL IMAP progressive binding reagent (Catalog #R7284) diluted 400-fold in 1× Binding buffer A. After 30 min of incubation at room temperature, the plates are read for fluorescence polarization on Analyst Plate Reader using Ex 485 nm, Em 530 nm, and FL 505 dichroic mirror. The mP signals are converted to percent of control (POC) values using the formula: POC=100*(Signal−BCTRL)÷(PCTRL−BCTRL)\nWhere Signal is the test well signal, BCTRL is the average of background (negative control) well signals on the plate and PCTRL is the average of positive control well signals on the plate. For the concentration-responsive compounds, POC as a function of test compound concentration is fitted to a 4-parameter logistic equation of the form: Y=A+(B−A)/[1+(x/C)D] Where A, B, C, and D are fitted parameters (parameter B is fixed at zero POC), and x and y are the independent and dependent variables, respectively. The IC50 is determined as the inflection point parameter, C.", "units": {"IC50": "µM"}, "values": [
      {"smiles": "CN1CCc2nc(NC(=O)c3cccc(OCC(=O)Nc4ccc5[nH]ncc5c4)c3)sc2C1", "note": "[Compound 23]", "IC50": 0.0008},
      {"smiles": "CN(C)[C@H]1CCc2nc(NC(=O)c3cccc([C@H]4CCCN4C(=O)Nc4cccc(C#N)c4)c3)sc2C1", "note": "[Compound 37]", "IC50": 0.0003},
      {"smiles": "N#Cc1ccn2cc(C(=O)N3CCC[C@@H]3c3cccc(C(=O)Nc4nc5c(s4)C[C@@H](N4CCOCC4)CC5)c3)nc2c1", "note": "[Compound 82]", "IC50": 0.0017},
      {"smiles": "CN(C)[C@H]1CCc2nc(NC(=O)c3cccc([C@H]4CCCN4C(=O)c4ccc(-c5ccncc5)cc4)c3)sc2C1", "note": "[Compound 88]", "IC50": 0.0038},
      {"smiles": "CN(C)[C@H]1CCc2nc(NC(=O)c3cccc([C@H]4CCCN4C(=O)c4ccc(-c5cnco5)cc4)c3)sc2C1", "note": "[Compound 90]", "IC50": 0.0021},
      {"smiles": "CN(C)[C@H]1CCc2nc(NC(=O)c3cccc([C@H]4CCCN4C(=O)c4csc(-c5cccnc5)n4)c3)sc2C1", "note": "[Compound 92]", "IC50": 0.0013},
      {"smiles": "CN(C)[C@H]1CCc2nc(NC(=O)c3cccc([C@H]4CCCN4C(=O)c4csc(-c5ccncc5)n4)c3)sc2C1", "note": "[Compound 94]", "IC50": 0.002},
      {"smiles": "CN(C)[C@H]1CCc2nc(NC(=O)c3cccc([C@H]4CCCN4C(=O)c4cc(-c5ccncc5)[nH]n4)c3)sc2C1", "note": "[Compound 96]", "IC50": 0.0008}
    ]},
    {"molecular_target": "T1, ROCKII (1-543)", "assay": "Luciferin-Luciferase Assay (PKLight ATP detection)", "format": "biochemical", "conditions": "750 nM ATP, 500 nM peptide, 7.5 nM kinase", "description": "1. Luciferin-Luciferase Assay\nThe activity of ROCKII (1-543) kinase was measured utilizing Cambrex PKLight ATP Detection Reagent, a homogeneous assay technology using luciferin-luciferase to quantify residual ATP. The assay was performed in 384-well low-volume, white, non-binding surface microtiter plates (Corning). The assay buffer was 25 mM HEPES, pH 7.5, 10 mM MgCl2, 50 mM KCl, 0.2% BSA, 0.01% CHAPS, 100 μM Na3VO4 and 0.5 mM DTT. Test compounds, dissolved in neat DMSO at 500 μg/mL, were serially diluted for dose response for a final starting concentration of 3 μg/mL in 1% DMSO of assay buffer. ROCKII (1-543) (62,408Da) was diluted in assay buffer to a final concentration of 7.5 nM in a total volume of 15 μL. Positive controls were reaction mixtures containing no test compound; negative controls (blanks) were reaction mixtures containing no kinase. After 15 minutes of pre-incubation of the test compounds with the kinase, a mixture of ATP and peptide substrate ([…]) in assay buffer was added to each well for a final concentration of 750 nM ATP and 500 nM peptide, respectively. After 90 minutes of incubation of the kinase reaction at 28° C. temperature, 10 μL of PKLight ATP Detection Reagent (warmed to room temperature previously) was added to each well. The assay plate was incubated at room temperature for additional 15 minutes and then read on an Analyst in luminescence mode. Dose-response experiments for each of the test compounds were conducted in quadruplet. IC50 values of test compounds represent 50% response of the positive control from the dose-response curve.", "units": {"IC50": "µM"}, "values": [
      {"smiles": "COc1ccc(C(=O)N[C@@H](c2cccc(C(=O)Nc3nc4c(s3)CN(C)CC4)c2)C2CC2)cc1Cl", "note": "[Compound 2]", "IC50": 0.0028},
      {"smiles": "CCCC[C@@H](NC(=O)Nc1cccc(C#N)c1)c1cccc(C(=O)Nc2nc3c(s2)CN(C)CC3)c1", "note": "[Compound 4]", "IC50": 0.0224},
      {"smiles": "CN1CCc2nc(NC(=O)c3cccc(N4CCC[C@@H]4C(=O)Nc4ccc(C#N)cc4)c3)sc2C1", "note": "[Compound 5, (R)-1-[3-(5-methyl-4,5,6,7-tetrahydro-thiazolo[5,4-c]pyridin-2-ylcarbamoyl)-phenyl]-pyrrolidine-2-carboxylic acid (4-cyano-phenyl)-amide]", "IC50": 0.0191},
      {"smiles": "CCCC[C@@H](NC(=O)c1ccc(OC)c(Cl)c1)c1cccc(C(=O)Nc2nc3c(s2)CN(C)CC3)c1", "note": "[Compound 8]", "IC50": 0.0381},
      {"smiles": "CC[C@@H](NC(=O)Nc1cccc(C#N)c1)c1cccc(C(=O)Nc2nc3c(s2)CN(C)CC3)c1", "note": "[Compound 10]", "IC50": 0.0057},
      {"smiles": "CC[C@@H](NC(=O)Nc1ccc(C#N)cc1)c1cccc(C(=O)Nc2nc3c(s2)CN(C)CC3)c1", "note": "[Compound 12]", "IC50": 0.0231},
      {"smiles": "CC[C@@H](NC(=O)c1ccc(OC)c(Cl)c1)c1cccc(C(=O)Nc2nc3c(s2)CN(C)CC3)c1", "note": "[Compound 14]", "IC50": 0.0038},
      {"smiles": "CN1CCc2nc(NC(=O)c3cccc([C@H]4CNC[C@@H]4C(=O)Nc4ccc(C#N)cc4)c3)sc2C1", "note": "[Compound 15]", "IC50": 0.0212},
      {"smiles": "C[C@@H](Oc1cccc(C(=O)Nc2nc3c(s2)CN(C)CC3)c1)C(=O)Nc1ccc(C#N)cc1", "note": "[Compound 19, 3-[(R)-1-(4-cyano-phenylcarbamoyl)-ethoxy]-N-(5-methyl-4,5,6,7-tetrahydro-thiazolo[5,4-c]pyridin-2-yl)-benzamide]", "IC50": 0.035},
      {"smiles": "CN1CCc2nc(NC(=O)c3cccc(N4CCC[C@@H]4C(=O)Nc4cccc(C#N)c4)c3)sc2C1", "note": "[Compound 21]", "IC50": 0.0955},
      {"smiles": "Cc1nc(-c2ccncc2)sc1C(=O)N1CCC[C@@H]1c1cccc(C(=O)Nc2nc3c(s2)CN(C)CC3)c1", "note": "[Compound 24]", "IC50": 0.0125},
      {"smiles": "Cc1c(C(=O)N2CCC[C@@H]2c2cccc(C(=O)Nc3nc4c(s3)CN(C)CC4)c2)nnn1-c1nonc1N", "note": "[Compound 30]", "IC50": 0.0334},
      {"smiles": "CN1CCc2nc(NC(=O)c3cccc([C@H]4CCCN4C(=O)Nc4ccc(C#N)cc4)c3)sc2C1", "note": "[Compound 38]", "IC50": 0.0153},
      {"smiles": "N#Cc1cccc(NC(=O)N2CCCC2c2cccc(C(=O)Nc3ccc4c(c3)CNCC4)c2)c1", "note": "(centres unmarked) [Compound 47, 2-[3-(1,2,3,4-tetrahydro-isoquinolin-7-ylcarbamoyl)-phenyl]-pyrrolidine-1-carboxylic acid (3-cyano-phenyl)-amide trifluoroacetic acid]", "IC50": 0.0178},
      {"smiles": "N#Cc1cccc(NC(=O)N2CCC[C@@H]2c2cccc(C(=O)Nc3ccc4c(c3)CNCC4)c2)c1", "note": "[Compound 53]", "IC50": 0.0115},
      {"smiles": "CN1CCc2nc(NC(=O)c3cccc(C4CCCN4C(=O)Nc4cccc(C#N)c4)c3)sc2C1", "note": "(centres unmarked) [Compound 55]", "IC50": 0.0088},
      {"smiles": "N#Cc1cccc(NC(=O)N2CCCC2c2cccc(C(=O)Nc3nc4c(s3)CN(Cc3ccccc3)CC4)c2)c1", "note": "(centres unmarked) [Compound 57]", "IC50": 0.0209},
      {"smiles": "CN1CCc2ccc(NC(=O)c3cccc(C4CCCN4C(=O)Nc4cccc(C#N)c4)c3)cc2C1", "note": "(centres unmarked) [Compound 59]", "IC50": 0.0224},
      {"smiles": "CN1CCc2nc(NC(=O)c3cccc(C4CCCN4C(=O)Nc4ccc(C#N)cc4)c3)sc2C1", "note": "(centres unmarked) [Compound 61]", "IC50": 0.0744},
      {"smiles": "CN1CCc2nc(NC(=O)c3cccc(C4CCCN4C(=O)Nc4ccc(C(N)=O)cc4)c3)sc2C1", "note": "(centres unmarked) [Compound 77]", "IC50": 0.0054},
      {"smiles": "C[C@@H](NC(=O)Nc1cccc(C#N)c1)c1cccc(C(=O)Nc2nc3c(s2)CN(C)CC3)c1", "note": "[Compound 81]", "IC50": 0.0055},
      {"smiles": "C[C@H](NC(=O)Nc1ccc(C#N)cc1)c1cccc(C(=O)Nc2nc3c(s2)CN(C)CC3)c1", "note": "[Compound 83]", "IC50": 0.0378},
      {"smiles": "CN1CCc2nc(NC(=O)c3cccc([C@H]4CCCN4C(=O)c4ccc5[nH]c(=O)ccc5c4)c3)sc2C1", "note": "[Compound 84]", "IC50": 0.0208},
      {"smiles": "C[C@@H](NC(=O)Nc1ccc(C#N)cc1)c1cccc(C(=O)Nc2nc3c(s2)CN(C)CC3)c1", "note": "[Compound 85]", "IC50": 0.0224},
      {"smiles": "CN1CCc2nc(NC(=O)c3cccc([C@H]4CCCN4C(=O)c4ccc(-c5cc[nH]n5)cc4)c3)sc2C1", "note": "[Compound 86]", "IC50": 0.0449},
      {"smiles": "N#Cc1cccc(NC(=O)N2CCC[C@@H]2c2cccc(C(=O)Nc3nc4c(s3)CN(Cc3ccccc3)CC4)c2)c1", "note": "[Compound 105]", "IC50": 0.0125},
      {"smiles": "CN1CCc2ccc(NC(=O)c3cccc([C@H]4CCCN4C(=O)Nc4cccc(C#N)c4)c3)cc2C1", "note": "[Compound 109]", "IC50": 0.0095},
      {"smiles": "CN1CCc2nc(NC(=O)c3cccc(C4CCCCN4C(=O)Nc4cccc(C#N)c4)c3)sc2C1", "note": "(centres unmarked) [Compound 111]", "IC50": 0.0393},
      {"smiles": "CN1CCc2nc(NC(=O)c3cccc(C4CCCN(C(=O)Nc5cccc(C#N)c5)C4)c3)sc2C1", "note": "(centres unmarked) [Compound 115]", "IC50": 0.0775},
      {"smiles": "CN1CCc2nc(NC(=O)c3cccc(C4CCCCN4C(=O)Nc4ccc(C#N)cc4)c3)sc2C1", "note": "(centres unmarked) [Compound 117]", "IC50": 0.0187},
      {"smiles": "COc1ccc(C(=O)N[C@H](C)c2cccc(C(=O)Nc3ccc4c(c3)CN(C)CC4)c2)cc1OC", "note": "[Compound 141]", "IC50": 0.0089},
      {"smiles": "COc1ccc(C(=O)N[C@H](C)c2cccc(C(=O)Nc3ccc4c(c3)CN(C)CC4)c2)cc1Cl", "note": "[Compound 143]", "IC50": 0.014},
      {"smiles": "COc1ccc(C(=O)N[C@H](C)c2cccc(C(=O)Nc3ccc4c(c3)CN(C)CC4)c2)cc1C", "note": "[Compound 145]", "IC50": 0.0105},
      {"smiles": "C[C@@H](NC(=O)Nc1cccc(C#N)c1)c1cccc(C(=O)Nc2ccc3c(c2)CN(C)CC3)c1", "note": "[Compound 147]", "IC50": 0.0189},
      {"smiles": "C[C@@H](NC(=O)Nc1ccc(C#N)cc1)c1cccc(C(=O)Nc2ccc3c(c2)CN(C)CC3)c1", "note": "[Compound 149]", "IC50": 0.0575},
      {"smiles": "CN1CCc2nc(NC(=O)c3cccc([C@H]4CCCN4C(=O)c4cn5cc(C#N)ccc5n4)c3)sc2C1", "note": "[Compound 150]", "IC50": 0.0255},
      {"smiles": "C[C@@H](NC(=O)Nc1ccc(C(N)=O)cc1)c1cccc(C(=O)Nc2ccc3c(c2)CN(C)CC3)c1", "note": "[Compound 153]", "IC50": 0.0095},
      {"smiles": "CN1CCc2nc(NC(=O)c3cccc([C@H](NC(=O)Nc4cccc(C#N)c4)C4CC4)c3)sc2C1", "note": "[Compound 155]", "IC50": 0.0097},
      {"smiles": "CN1CCc2nc(NC(=O)c3cccc([C@H](NC(=O)Nc4ccc(C#N)cc4)C4CC4)c3)sc2C1", "note": "[Compound 157]", "IC50": 0.0457}
    ]}
  ]
}
